Reference: patent publication US20240408057A1, “Composition for preventing or treating cachexia and muscle loss” (METAFINES.CO.LTD., priority 2023, published 2024)

Legend:
Type in all cases: cell-based, mouse
[1] = tested on: PDK-4; assay: PDK-4 expression (Western blot) in CCM-treated C2C12 myotubes; conditions: for expression of PDK-4: C2C12 myotubes + CCM, 72 hours, comparison experiment with components alone and in combination; for expression level of PDK-4: C2C12 myotubes, differentiation medium:CCM 1:1, 72 hours, three predetermined concentrations, vs CCM control
Protocol: (§1) C2C12 cell line was dispensed into a 6-well plate at 4.0×10^5 cells/well and cultured in DMEM medium containing 10% fetal bovine serum (FBS) under 37° C. and 5% CO2 conditions for one day. When the cell density reached about 80%, the medium was replaced with a differentiation medium and the cells were cultured for additional 3 days. […] After culturing for 72 hours, the cells were collected and analyzed for PDK-4, which is a target marker, by Western blot and the results are summarized in FIG. 6.
(§2) A C2C12 cell line was dispensed into a 6-well plate at 4.0×10^5 cells/well, and then cultured in DMEM medium containing 10% fetal bovine serum (FBS) under 37° C. and 5% CO2 conditions for one day. When the cell density reached about 80%, the medium was replaced with a differentiation medium and the cells were cultured for additional 3 days.
Subsequently, MuRF1, Atrogin1, MyHC, Myogenin (muscle markers) and Calpain 3, PDK-4, and GDF-15 (other target markers for muscle related disease) were analyzed using Western blot, and the relative expression levels for the markers are shown in FIGS. 26 and 28.

[2] = tested on: Calpain 3; assay: Calpain 3 expression (Western blot) in CCM-treated C2C12 myotubes
Protocol: as §1
The experiment was performed in the same manner as in Experimental Example 3-1, except that Calpain 3 was analyzed as a target marker for Western blot, and the results are summarized in FIG. 7.
as §2

[3] = tested on: GDF-15; assay: GDF-15 expression (Western blot) in CCM-treated C2C12 myotubes; conditions: for expression of GDF-15: C2C12 myotubes + CCM, 72 hours, comparison experiment with components alone and in combination; for expression level of GDF-15: C2C12 myotubes, differentiation medium:CCM 1:1, 72 hours, three predetermined concentrations, vs CCM control
Protocol: as §1
The analysis was performed in the same manner as in Experimental Example 4-1 except for analyzing GDF-15 as a target marker for a Western blot, and the results are summarized in FIGS. 8 and 9.
The analysis was performed in the same manner as in Experimental Example 3-1 except for analyzing PDK-4 as a target marker for Western blot, and the results are summarized in FIGS. 10 and 11.
as §2

[4] = tested on: MuRF1; assay: MuRF1 expression (Western blot) in CCM-treated C2C12 myotubes; conditions: 72 hours, compared to other experimental groups (components alone and in combination)
Protocol: (§3) A C2C12 cell line was dispensed into a 6-well plate at 4.0×10^5 cells/well, and then cultured in DMEM medium containing 10% fetal bovine serum (FBS) under 37° C. and 5% CO2 conditions for one day. When the cell density reached about 80%, the medium was replaced with a differentiation medium and the cells were cultured for additional 3 days. After confirming completion of differentiation of the cells, the cells were treated with a mixture, in which the differentiation medium and cancer-cell conditioned medium (CCM) were mixed at a 1:1 ratio, to form a control group, and simultaneously, a test group was set up by treating with the calcium salts of Preparation Examples 1 to 3 according to three predetermined concentrations.
as §2

[5] = tested on: Atrogin1; assay: Atrogin1 expression (Western blot) in CCM-treated C2C12 myotubes; conditions: 72 hours, compared to other experimental groups (components alone and in combination)
Protocol: as §3, §2

[6] = tested on: MyHC; assay: MyHC expression (Western blot) in CCM-treated C2C12 myotubes; conditions: 72 hours, compared to other experimental groups (components alone and in combination)
Protocol: as §3, §2

[7] = tested on: Myogenin; assay: Myogenin expression (Western blot) in CCM-treated C2C12 myotubes; conditions: 72 hours, compared to other experimental groups (components alone and in combination)
Protocol: as §3, §2

[8] = tested on: C2C12 myotube cells; assay: Myotube diameter of C2C12 myotubes treated with inducers (no CCM); conditions: 72 hours
Protocol: (§4) A C2C12 cell line was dispensed into a 6-well plate at 4.0×10^5 cells/well, and then cultured in DMEM medium containing 10% fetal bovine serum (FBS) under 37° C. and 5% CO2 conditions for one day. When the cell density reached about 80%, the medium was replaced with a differentiation medium and the cells were cultured for additional 3 days to set up a normal control group, and simultaneously a test group was set up by treatment with WY-14643, which is a PDK-4 activator, at a concentration of 50 μM. […] Scale bars inserted in FIGS. 13A and 13B represent a horizontal length of 50 μm. Referring to FIG. 13, it was confirmed that the diameter of myotube cells decreased when treated with the PDK-4 activator (i.e., WY-14643), thereby inducing the cells to a state similar to that of cancer cachexia.
A C2C12 cell line was dispensed into a 6-well plate at 4.0×10^5 cells/well, and then cultured in DMEM medium containing 10% fetal bovine serum (FBS) under 37° C. and 5% CO2 conditions for one day. […]
A C2C12 cell line was dispensed into a 6-well plate at 4.0×10^5 cells/well, and then cultured in DMEM medium containing 10% fetal bovine serum (FBS) under 37° C. and 5% CO2 conditions for one day. […] The myotube diameter was measured using Image J to confirm the changes in diameter of myotube cells, and the results are shown in FIG. 37B.

[9] = tested on: PDK-4; assay: PDK-4 expression (Western blot) in C2C12 myotubes treated with inducers (no CCM); conditions: 50 μM, 72 hours, vs UCM
Protocol: as §4
Subsequently, the expression of PDK-4, MuRF1, Atrogin1, MyHC, and Myogenin in the normal control group (UCM) and the activator-treated group (WY-14643) were analyzed by Western blot, and the results are shown in FIGS. 14A and 14B.
as §2, with “days. […]” for “days.”

[10] = tested on: MuRF1; assay: MuRF1 expression (Western blot) in C2C12 myotubes treated with inducers (no CCM); conditions: 50 μM, 72 hours, vs UCM
Protocol: as §4
(§5) Subsequently, the expression of PDK-4, MuRF1, Atrogin1, MyHC, and Myogenin in the normal control group (UCM) and the activator-treated group (WY-14643) were analyzed by Western blot, and the results are shown in FIGS. 14A and 14B. […]
(§6) Subsequently, the expression of Calpain 3, MuRF1, Atrogin1, MyHC, and Myogenin in the normal control group (UCM), vehicle control group (scrambled siRNA), and Calpain 3 siRNA treated group was analyzed by Western blot, and the results are shown in FIGS. 16A and 16B. […]

[11] = tested on: Atrogin1; assay: Atrogin1 expression (Western blot) in C2C12 myotubes treated with inducers (no CCM); conditions: 50 μM, 72 hours, vs UCM
Protocol: as §4, §5, §6

[12] = tested on: MyHC; assay: MyHC expression (Western blot) in C2C12 myotubes treated with inducers (no CCM); conditions: 50 μM, 72 hours, vs UCM
Protocol: as §4, §5, §6

[13] = tested on: Myogenin; assay: Myogenin expression (Western blot) in C2C12 myotubes treated with inducers (no CCM); conditions: 50 μM, 72 hours, vs UCM
Protocol: as §4, §5, §6

[14] = tested on: C2C12 myotube cells; assay: Myotube diameter (crystal violet, Image J) of CCM-treated C2C12 myotubes; conditions: C2C12 myotubes + CCM 1:1, 72 hours, predetermined concentration; compared to CCM
Protocol: A C2C12 cell line was dispensed into a 6-well plate at 4.0×10^5 cells/well, and then cultured in DMEM medium containing 10% fetal bovine serum (FBS) under 37° C. and 5% CO2 conditions for one day. When the cell density reached about 80%, the medium was replaced with a differentiation medium and the cells were cultured for additional 3 days. […] The myotube diameter was measured using Image J from the above image, and the change in myotube cell diameter is summarized in FIG. 17B. A C2C12 cell line was dispensed into a 6-well plate at 4.0×10^5 cells/well, and then cultured in DMEM medium containing 10% fetal bovine serum (FBS) under 37° C. and 5% CO2 conditions for one day. When the cell density reached about 80%, the medium was replaced with a differentiation medium and the cells were cultured for additional 3 days. […] The myotube diameter was measured using Image J from the above images, and the changes in myotube cell diameter are summarized in FIG. 24B.

[15] = C2C12 myotubes + CCM, 72 hours, compared to other experimental groups (components alone and in combination)
[16] = C2C12 myotubes, differentiation medium:CCM 1:1, 72 hours, three predetermined concentrations, vs CCM control

Row | Structure (SMILES) | expression of PDK-4 [1] | expression level of PDK-4 [1] | expression level of Calpain 3 [2, 15] | expression level of Calpain 3 [2, 16] | expression of GDF-15 [3] | expression level of GDF-15 [3] | expression of MuRF1 [4] | expression of Atrogin1 [5] | expression of MyHC [6] | expression of Myogenin [7] | diameter of myotube cells [14] | also measured
1 | CC(C)CC(N)C(=O)[O-].O=C1OC(C(O)CO)C([O-])=C1O.[Ca+2] (centres unmarked) [Preparation Example 2, calcium salts of ascorbic acid and leucine] | inhibited | expression was inhibited | higher expression level | decrease in expression was inhibited | inhibited | expression was inhibited | excellent effect of inhibiting the increase of expression | excellent effect of inhibiting the increase of expression | excellent effect of inhibiting the decrease of expression | excellent effect of inhibiting the decrease of expression |  | 
2 | CC(C)CC(N)C(=O)[O-].O=C([O-])C(Cl)Cl.[Ca+2] (centres unmarked) [Preparation Example 3, calcium salts of dichloroacetic acid and leucine] | inhibited | expression was inhibited | higher expression level | decrease in expression was inhibited | inhibited | expression was inhibited | excellent effect of inhibiting the increase of expression | excellent effect of inhibiting the increase of expression | excellent effect of inhibiting the decrease of expression | excellent effect of inhibiting the decrease of expression |  | 
3 | Cc1cccc(Nc2cc(Cl)nc(SCC(=O)O)n2)c1C [WY-14643] |  |  |  |  |  |  |  |  |  |  |  | diameter of myotube cells ([8]; 50 μM, vs normal control (UCM)): decreased; expression of PDK-4 [9]: up-regulated; expression of MuRF1 [10]: up-regulated; expression of Atrogin1 [11]: up-regulated; expression of MyHC [12]: down-regulated; expression of Myogenin [13]: down-regulated
4 | O=C1O[C@H]([C@@H](O)CO)C(O)=C1O [ascorbic acid, reference compound] |  |  |  |  |  |  |  |  |  |  | increased | 
5 | C[C@@H]1C[C@H]2[C@@H]3CCC4=CC(=O)C=C[C@]4(C)[C@@]3(F)[C@@H](O)C[C@]2(C)[C@@]1(O)C(=O)CO [dexamethasone] |  |  |  |  |  |  |  |  |  |  |  | treatment concentration from which the myotube diameter started to decrease [8]: ≥ 1 µM
6 | O=C(O)C(Cl)Cl [dichloroacetic acid, reference compound] |  |  |  |  |  |  |  |  |  |  | increased | 
